Results on 4 molecules are retold here after article PMC11765572 (International Journal of Molecular Sciences, 2025).

Usually EC50 stands for the midpoint of the concentration-response curve. The term IC50 denotes the concentration that gives 50% inhibition. What is called inhibition is the percentage by which the read-out fell short of the control.

One data set can be described thus: in vitro. To be noted: African green monkey.
In data set [1] the test system is SARS-CoV-2 (BetaCov/Belgium/GHB-03021/2020 B.1 lineage A). The experiment in a line: microbe, parasite or virus in culture. Conditions: Severe acute respiratory syndrome coronavirus 2, 96 h, mean ± SD of two independent replicates.
The target of the next data set is T1, SARS-CoV-2 M^pro (Severe acute respiratory syndrome coronavirus 2, UniProt P0DTD1).
T1 construct: main protease (M^pro, also known as Nsp5 and 3C-like protease); purchased Beyotime P0312S
Description: biochemical. To be noted: FRET; for IC50: substrate Dabcyl-[…]-Edans, mean ± SD of three independent measurements; for inhibition at 1 µM: single concentration of 1 μM, read-out: inhibition rate.

The next data set has as its system SARS-CoV-2 delta strains. Also on record: method as in PMID 39072488. To be noted: delta strain, Vero E6 cells, viral copy numbers in supernatant by qRT-PCR; cited from earlier work. On the technique in general: In qPCR the cycle at which signal appears reflects the starting amount.
Data set [2] relates to SARS-CoV-2 (BetaCov/Belgium/GHB-03021/2020 B.1 lineage A). Conditions: […]; mean ± SD of two independent replicates.
Data set [3] has the same test system. Conditions: VeroE6-eGFP cells; from a previous report, measured under identical conditions; cited from earlier work.
The subject of another data set is VeroE6-eGFP cells. Conditions: from a previous report, measured under identical conditions; cited from earlier work.

The structures appear in SMILES notation. Like-named read-outs stand apart in the source and are kept apart here.

For the molecule `CNC(=O)c1cc(Br)cc([N+](=O)[O-])c1N[C@@H]1CCCC[C@@H]1NC(=O)c1cccnc1` [Compound A5, N-((1S,2R)-2-((4-bromo-2-(methylcarbamoyl)-6-nitrophenyl)amino)cyclohexyl)nicotinamide], the CC50 at 5 days in the data set “in vitro” was > 100000 nM. The molecule further gave an EC50 in data set [1] of 2010 to 6050 nM. For the same molecule, at SARS-CoV-2 M^pro, the IC50 turned out to be 1050 ± 67 nM and the inhibition at 1 µM was determined as 53.7%.

For the molecule `CNC(=O)c1cc(Br)cc([N+](=O)[O-])c1N[C@@H]1CCCC[C@@H]1NC(=O)c1cncc(O)c1` [Compound A6, N-((1S,2R)-2-((4-bromo-2-(methylcarbamoyl)-6-nitrophenyl)amino)cyclohexyl)-5-hydroxynicotinamide], the CC50 at 5 days in “in vitro” was > 100000 nM. For the same molecule, on SARS-CoV-2 M^pro, the midpoint of inhibition, the IC50, lay at 1080 ± 23 nM and the inhibition at 1 µM came out at 55.5%.

Consider `CNC(=O)c1cc(Br)cc([N+](=O)[O-])c1N[C@@H]1CCCC[C@@H]1NC(=O)c1cc(=O)[nH]c2ccccc12` [Compound A9, N-((1S,2R)-2-((4-bromo-2-(methylcarbamoyl)-6-nitrophenyl)amino)cyclohexyl)-2-oxo-1,2-dihydroquinoline-4-carboxamide], for which the CC50 at 5 days in “in vitro” was > 100000 nM. Moreover, the EC50 was 849 nM with SARS-CoV-2 delta strains, 180 ± 20 nM in data set [1] and “micromolar or submicromolar range” in data set [2]. On SARS-CoV-2 M^pro, the midpoint of inhibition, the IC50, lay at 154 ± 6 nM. Also, at SARS-CoV-2 M^pro, the inhibition at 1 µM stood at 92%.

Regarding `CC(C)(C)[C@H](NC(=O)C(F)(F)F)C(=O)N1C[C@H]2[C@@H]([C@H]1C(=O)N[C@H](C#N)C[C@@H]1CCNC1=O)C2(C)C` [Nirmatrelvir], the EC50 in data set [3] was 123 ± 34 nM. Moreover, the CC50 in the data set on VeroE6-eGFP cells is > 100000 nM.
